System: Th2 cells
Assay: Cytokine production of in vitro differentiated Th2 cells restimulated for 16 h (ELISA)
Format: cell-based, mouse
Settings: restimulated 16 h, 0 to 100 µM
Method: To clarify the effects of pyrrothiogatain on Th2 cell differentiation, naive CD4 T cells were purified and cultured under Th2 conditions in the presence or absence of pyrrothiogatain for 5 days, and then the Th2 cell differentiation status was determined by intracellular staining. The generation of IL-4-, IL-5-, and IL-13-producing Th2 cells was repressed by treatment with pyrrothiogatain (Fig. 5A). Decreased production and mRNA expression of IL-4, IL-5 and IL-13 were confirmed using ELISA and RT-qPCR, respectively (Fig. 5B,C). […] Next, we treated in vitro differentiated Th2 cells with pyrrothiogatain to test the effect of pyrrothiogatain on Th2 cytokine production. Total CD4^+ cells were cultured under Th2 conditions for 5 days, and then the Th2 cells were restimulated in the presence or absence of pyrrothiogatain for 16 h. […]
Figure 5 Pyrrothiogatain inhibits Th2 cell differentiation and production of Th2 cytokines. […] (B) Cytokine production induced in the pyrrothiogatain treated Th2 cells shown in panel (A) was determined by ELISA. (C) Quantitative RT-PCR analysis of the pyrrothiogatain-treated Th2 cells shown in panel (A). […] The amounts of IL-4, IL-5 and IL-13 in the culture supernatants were determined by ELSA. In (B), (C) and (E), all data are expressed as individual points of three independent experiments with error bars indicating standard deviation. […]

Question: With `Cc1ccc(C)n1-c1ccsc1C(=O)O` [Pyrrothiogatain, 3-(2,5-dimethyl-1H-pyrrol-1-yl)thiophene-2-carboxylic acid] as the compound, how does the “IL-4, IL-5 and IL-13 production of restimulated Th2 cells” value read?
Answer: decreased
